US6469162B1, “Compounds with chelation affinity and selectivity for first transition series elements: use in medical therapy and diagnosis” (Concat, Ltd., priority 1995, dated 2002)

Tests used:
[1] = test system: mature, nonreplicating cultures of HFF (human foreskin fibroblasts); experiment: Toxicity toward nonproliferating mammalian cells in vitro; type: cell-based; details: 0.3 mM, nonreplicating HFF in maintenance media, five-day period of observation
[2] = Subacute toxicity, repeated intravenous doses to rats; type: in vivo, Sprague Dawley rats; details: 0.05 millimoles per kg i.v. on 10 days
Source text: Ten male Sprague Dawley rats 29 days old and weighing between 73.4 and 87.8 grams at the beginning of the experiment were randomized, employing the block stratification method, into two groups consisting of five rats each. On each of days 1, 2, 3, 6, 7, 8, 9, 10, 13 and 14 of the experiment one set of rats received an intravenous dose of N,N′,N″-tris(dihydroxyphosphorylmethyl)-1,4,7-triazacyclononane (Example 1 C in U.S. Pat. No. 5,236,695) equal to 0.05 millimoles per kg of initial body weight (experimental group) while the other group received an equivalent volume of normal saline solution. The weights of the animals were recorded three times per week and the animals were sacrificed on the 28th day, major organs removed and weighed and tissues removed for microscopic examination.

[3] = Acute in vivo toxicity, single intravenous dose to mice; details: 4.0 mM/kg single intravenous dose, survival for over 14 days
Protocol: This example illustrates the low in vivo toxicity of a representative ligand administer intravenously to mice.
This in vivo LD50 toxicity dose results in an instantaneous in vivo concentration which is orders of magnitude greater than the dose of this agent which inhibits mammalian cell replication in vitro (0.009 mM/L).

Structure (SMILES)	effect on resting cells [1]	weight or rate of weight gain, experimental vs control group ([2]; injection period and two-week post-injection period)	microscopic examination of tissues, experimental vs control group ([2]; necropsy on the 28th day)	weights of major organs, experimental vs control group ([2]; sacrificed on the 28th day)	mice surviving [3]
O=P(O)(O)CN1CCN(CP(=O)(O)O)CCN(CP(=O)(O)O)CC1 [N,N′,N″-tris(dihydroxyphosphorylmethyl)-1,4,7-triazacyclononane]	no effect	no statistically significant difference	no differences	no differences	
O=P(O)(O)CN1CCN(CP(=O)(O)O)CCN(CP(=O)(O)O)CC1 [N,N′,N″-tris-(dihydroxyphosphorylmethyl)-1,4,7-triazacyclononane]					Over 50%
